Data published in PubChem BioAssay (NCI).
“And” between values parts separate entries of the source, which are not always exact repeats. Equal values may be shown once.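 Cultured in 96-well plates, cells were exposed to test compound for 48 hours across five concentrations. GI50: concentration for 50% inhibition of growth. Definition used: TGI = concentration required for complete inhibition of growth.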

Columns and labels:
Test in all cases: DTP human tumour cell line panel, 48 h; in the data active means GI50 below about 0.43 µM; inactive means the rest
[1] = tested on: 786-0 renal
[2] = tested on: A549 NSCLC
[3] = tested on: ACHN renal
[4] = tested on: BT-549 breast
[5] = tested on: CAKI-1 renal
[6] = tested on: CCRF-CEM leukemia
[7] = tested on: COLO 205 colon
[8] = tested on: DU-145 prostate
[9] = tested on: EKVX NSCLC
[10] = tested on: HCT-116 colon
[11] = tested on: HCT-15 colon
[12] = tested on: HL-60(TB) leukemia
[13] = tested on: HOP-62 NSCLC
[14] = tested on: HOP-92 NSCLC
[15] = tested on: HS 578T breast
[16] = tested on: HT29 colon
[17] = tested on: IGROV1 ovarian
[18] = tested on: K-562 leukemia
[19] = tested on: KM12 colon
[20] = tested on: M14 melanoma
[21] = tested on: MALME-3M melanoma
[22] = tested on: MDA-MB-231 breast
[23] = tested on: MDA-N
[24] = tested on: MOLT-4 leukemia
[25] = tested on: NCI-H226 lung
[26] = tested on: NCI-H23 lung
[27] = tested on: NCI-H522 lung
[28] = tested on: NCI/ADR-RES ovarian
[29] = tested on: OVCAR-3 ovarian
[30] = tested on: OVCAR-4 ovarian
[31] = tested on: OVCAR-5 ovarian
[32] = tested on: PC-3 prostate
[33] = tested on: RPMI-8226 leukemia
[34] = tested on: RXF 393 renal
[35] = tested on: SF-268 CNS
[36] = tested on: SF-295 CNS
[37] = tested on: SK-MEL-2 melanoma
[38] = tested on: SK-MEL-28 melanoma
[39] = tested on: SK-MEL-5 melanoma
[40] = tested on: SK-OV-3 ovarian
[41] = tested on: SN12C renal
[42] = tested on: SNB-19 CNS
[43] = tested on: SNB-75 CNS
[44] = tested on: SR leukemia
[45] = tested on: SW-620 colon
[46] = tested on: T-47D breast
[47] = tested on: TK-10 renal
[48] = tested on: U251 CNS
[49] = tested on: UACC-257 melanoma
[50] = tested on: UACC-62 melanoma
[51] = tested on: UO-31 renal
[52] = tested on: A498 renal
[53] = tested on: HCC-2998 colon
[54] = tested on: LOX IMVI melanoma
[55] = tested on: MCF7 breast
[56] = tested on: MDA-MB-435
[57] = tested on: NCI-H460 lung
[58] = tested on: OVCAR-8 ovarian
[59] = tested on: SF-539 CNS

O=S(=O)(O)c1cc(O)c(N=Nc2ccc3ccccc3c2O)c2ccccc12
40.2 µM: TGI [27]
32.3 µM: TGI [17]
65 µM: TGI [51]
31.6 µM: TGI [8]
42.3 µM: TGI [50]
52.6 µM: TGI [2]
79.1 µM: TGI [43]
46.7 µM: TGI [28]
74.6 µM: TGI [18]
49.5 µM: TGI [25]
94.7 µM: TGI [22]
70.6 µM: TGI [5]
> 100 µM: TGI [1] | TGI [3] | TGI [4] | TGI [6] | TGI [7] | TGI [9] | TGI [10] | TGI [11] | TGI [12] | TGI [13] | TGI [14] | TGI [15] | TGI [19] | TGI [23] | TGI [29] | TGI [30] | TGI [31] | TGI [32] | TGI [33] | TGI [34] | TGI [36] | TGI [37] | TGI [38] | TGI [40] | TGI [41] | TGI [42] | TGI [44] | TGI [45] | TGI [47] | TGI [48]
30.8 µM: TGI [26]
84.6 µM: TGI [46]
72.3 µM: TGI [16]
9.66 µM: TGI [21]
97 µM: TGI [24]
25.2 µM: TGI [39]
66.7 µM: TGI [49]
41.4 µM: TGI [20]
58.7 µM: TGI [35]

CC(C)=CCCC1(C)C2COC(=O)C21 (centres undefined)
> 100 µM and 75.4 µM: TGI [13]
> 100 µM and 34.1 µM: TGI [57]
inactive: GI50 [5] > 100 µM and 16 µM | GI50 [6] 39.3 µM and 12.3 µM | GI50 [7] > 100 µM and 34.2 µM | GI50 [10] > 100 µM and 19.8 µM | GI50 [11] > 100 µM and 37 µM | GI50 [12] 43.3 µM and 18.8 µM | GI50 [13] > 100 µM and 27.6 µM | GI50 [14] > 100 µM and 34.2 µM | GI50 [19] > 100 µM and 42.1 µM | GI50 [54] 38.8 µM and 19 µM | GI50 [56] > 100 µM and 43.6 µM | GI50 [23] > 100 µM and 31.7 µM | GI50 [25] > 100 µM | GI50 [26] > 100 µM and 26.7 µM | GI50 [57] > 100 µM and 19.3 µM | GI50 [27] > 100 µM and 47.2 µM | GI50 [39] > 100 µM and 17.5 µM | GI50 [41] 52.8 µM and 19.3 µM | GI50 [44] > 100 µM | GI50 [48] > 100 µM and 43.5 µM
> 100 µM and 39.9 µM: TGI [41]
> 100 µM and 40.9 µM: TGI [12]
> 100 µM and 60.1 µM: TGI [26]
> 100 µM and 97.3 µM: TGI [14]
> 100 µM and 34.7 µM: TGI [54]
> 100 µM and 35.4 µM: TGI [10]
> 100 µM and 52.6 µM: TGI [6]
> 100 µM: TGI [1] | TGI [52] | TGI [3] | TGI [4] | TGI [7] | TGI [8] | TGI [9] | TGI [53] | TGI [11] | TGI [16] | TGI [17] | TGI [19] | TGI [21] | TGI [55] | TGI [22] | TGI [56] | TGI [23] | TGI [25] | TGI [27] | TGI [30] | TGI [31] | TGI [32] | TGI [33] | TGI [34] | TGI [35] | TGI [36] | TGI [37] | TGI [38] | TGI [40] | TGI [42] | TGI [44] | TGI [45] | TGI [47] | TGI [48] | TGI [49] | TGI [50] | TGI [51]
> 100 µM and 30.7 µM: TGI [5]
> 100 µM and 27.4 µM: TGI [18]
> 100 µM and 34.6 µM: TGI [39]

NC(N)=NCCCC(NC(=O)c1c2ccccc2nc2ccccc12)C(=O)O (centres undefined)
> 100 µM: TGI [1] | TGI [52] | TGI [2] | TGI [3] | TGI [4] | TGI [5] | TGI [6] | TGI [7] | TGI [8] | TGI [9] | TGI [53] | TGI [10] | TGI [11] | TGI [13] | TGI [14] | TGI [16] | TGI [17] | TGI [18] | TGI [19] | TGI [54] | TGI [20] | TGI [55] | TGI [22] | TGI [56] | TGI [23] | TGI [24] | TGI [25] | TGI [26] | TGI [57] | TGI [27] | TGI [28] | TGI [29] | TGI [30] | TGI [31] | TGI [58] | TGI [32] | TGI [33] | TGI [35] | TGI [36] | TGI [59] | TGI [37] | TGI [38] | TGI [39] | TGI [40] | TGI [41] | TGI [42] | TGI [43] | TGI [44] | TGI [45] | TGI [47] | TGI [48] | TGI [49] | TGI [50] | TGI [51]
